# Experiments:
# Format in all cases: in vivo
# [1] = test system: Cabbage Looper (Trichoplusia ni, TRIPNI); experiment: Bioassay on Cabbage Looper (CL), 128-well diet tray assay; settings: Trichoplusia ni; Species CL (Cabbage Looper); read-out: CL (Biological Results, rating)
# Method in brief: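 Second-instar larvae, one to five per well, placed on artificial diet treated with 50 μg/cm^2 test molecule in 90:10 acetone-water, dried before infestation. Held 5–7 days at 25° C, 14:10 light-dark; percent mortality averaged over eight wells.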
# [2] = test system: Yellow Fever Mosquito (Aedes aegypti, AEDSAE); experiment: Bioassay on Yellow Fever Mosquito (YFM), 96-well plate larval assay; settings: Species YFM (Yellow Fever Mosquito)
# Method in brief: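 Aedes aegypti larvae (about 1 day old) in liver-powder water were added to plates dispensed from DMSO master plates (4000 ppm stock) diluted with 90:10 water/acetone; six replicate plates per master. Lidded plates were held at room temperature for 3 days, then each well was scored for mortality.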
# [3] = test system: Beet Armyworm (Spodoptera exigua, LAPHEG); experiment: Bioassay on Beet Armyworm (BAW), 128-well diet tray assay; settings: Species BAW (Beet Armyworm), read-out: BAW (Biological Results, rating)
# Method in brief: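 Second instar larvae were exposed to diet treated at 50 μg/cm^2 for five to seven days at 25° C.; mortality was averaged over eight wells.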
Structure (SMILES),pest or weed control at 50 µg/cm2 [1],"YFM (Biological Results, rating) [2]",pest or weed control at 50 µg/cm2 [3]
"O=C(Nc1ccc([N+](=O)[O-])cn1)c1cc(NC(=O)[C@H]2[C@H](c3cc(Cl)cc(Cl)c3)C2(Cl)Cl)ccc1Cl (relative stereo) [F293, 2-Chloro-5-(trans-2,2-dichloro-3-(3,5-dichlorophenyl)cyclopropane-1-carboxamido)-N-(5-nitropyridin-2-yl)benzamide]",50 to 100%,A (80-100),50 to 100%
"O=C(Nc1ncccn1)c1cc(NC(=O)[C@H]2[C@H](c3cc(Cl)cc(Cl)c3)C2(Cl)Cl)ccc1Cl (relative stereo) [F294, trans-2-Chloro-5-(2,2-dichloro-3-(3,5-dichlorophenyl)cyclopropane-1-carboxamido)-N-(pyrimidin-2-yl)benzamide]",50 to 100%,A (80-100),50 to 100%
"O=C(Nc1cncnc1)c1cc(NC(=O)[C@H]2[C@H](c3cc(Cl)cc(Cl)c3)C2(Cl)Cl)ccc1Cl (relative stereo) [F295, trans-2-Chloro-5-(2,2-dichloro-3-(3,5-dichlorophenyl)cyclopropane-1-carboxamido)-N-(pyrimidin-5-yl)benzamide]",50 to 100%,A (80-100),50 to 100%
"O=C(Nc1ccncn1)c1cc(NC(=O)[C@H]2[C@H](c3cc(Cl)cc(Cl)c3)C2(Cl)Cl)ccc1Cl (relative stereo) [F296, trans-2-Chloro-5-(2,2-dichloro-3-(3,5-dichlorophenyl)cyclopropane-1-carboxamido)-N-(pyrimidin-4-yl)benzamide]",50 to 100%,A (80-100),50 to 100%
"Cc1cc(NC(=O)c2cc(NC(=O)[C@H]3[C@H](c4cc(Cl)cc(Cl)c4)C3(Cl)Cl)ccc2Cl)ncc1F (relative stereo) [F297, trans-2-Chloro-5-(2,2-dichloro-3-(3,5-dichlorophenyl)cyclopropane-1-carboxamido)-N-(5-fluoro-4-methylpyridin-2-yl)benzamide]",50 to 100%,A (80-100),50 to 100%
"N#Cc1c(F)cccc1NC(=O)c1cc(NC(=O)[C@H]2[C@H](c3cc(Cl)cc(Cl)c3)C2(Cl)Cl)ccc1Cl (relative stereo) [F298, 2-Chloro-N-(2-cyano-3-fluorophenyl)-5-(trans-2,2-dichloro-3-(3,5-dichlorophenyl)cyclopropane-1-carboxamido)benzamide]",50 to 100%,A (80-100),50 to 100%
"N#Cc1cccc(F)c1NC(=O)c1cc(NC(=O)[C@H]2[C@H](c3cc(Cl)cc(Cl)c3)C2(Cl)Cl)ccc1Cl (relative stereo) [F299, 2-Chloro-N-(2-cyano-6-fluorophenyl)-5-(trans-2,2-dichloro-3-(3,5-dichlorophenyl)cyclopropane-1-carboxamido)benzamide]",50 to 100%,A (80-100),50 to 100%
"Cc1cc(F)c(NC(=O)c2cc(NC(=O)[C@H]3[C@H](c4cc(Cl)cc(Cl)c4)C3(Cl)Cl)ccc2Cl)c(C#N)c1 (relative stereo) [F300, 2-Chloro-N-(2-cyano-6-fluoro-4-methylphenyl)-5-(trans-2,2-dichloro-3-(3,5-dichlorophenyl)cyclopropane-1-carboxamido)benzamide]",50 to 100%,A (80-100),50 to 100%
"N#Cc1cc(Cl)ccc1NC(=O)c1cc(NC(=O)[C@H]2[C@H](c3cc(Cl)cc(Cl)c3)C2(Cl)Cl)ccc1Cl (relative stereo) [F301, 2-Chloro-N-(4-chloro-2-cyanophenyl)-5-(trans-2,2-dichloro-3-(3,5-dichlorophenyl)cyclopropane-1-carboxamido)benzamide]",50 to 100%,A (80-100),50 to 100%
"N#Cc1c(Cl)cccc1NC(=O)c1cc(NC(=O)[C@H]2[C@H](c3cc(Cl)cc(Cl)c3)C2(Cl)Cl)ccc1Cl (relative stereo) [F302, 2-Chloro-N-(3-chloro-2-cyanophenyl)-5-(trans-2,2-dichloro-3-(3,5-dichlorophenyl)cyclopropane-1-carboxamido)benzamide]",50 to 100%,A (80-100),50 to 100%
"N#Cc1ccc(Br)cc1NC(=O)c1cc(NC(=O)[C@H]2[C@H](c3cc(Cl)cc(Cl)c3)C2(Cl)Cl)ccc1Cl (relative stereo) [F303, N-(5-Bromo-2-cyanophenyl)-2-chloro-5-(trans-2,2-dichloro-3-(3,5-dichlorophenyl)cyclopropane-1-carboxamido)benzamide]",50 to 100%,A (80-100),50 to 100%
"Cc1cccc(NC(=O)c2cc(NC(=O)[C@H]3[C@H](c4cc(Cl)cc(Cl)c4)C3(Cl)Cl)ccc2Cl)c1C#N (relative stereo) [F304, 2-Chloro-N-(2-cyano-3-methylphenyl)-5-(trans-2,2-dichloro-3-(3,5-dichlorophenyl)cyclopropane-1-carboxamido)benzamide]",50 to 100%,A (80-100),50 to 100%
"Nc1ccc(NC(=O)c2cc(NC(=O)[C@H]3[C@H](c4cc(Cl)cc(Cl)c4)C3(Cl)Cl)ccc2Cl)nc1 (relative stereo) [F305, N-(5-Aminopyridin-2-yl)-2-chloro-5-(trans-2,2-dichloro-3-(3,5-dichlorophenyl)cyclopropane-1-carboxamido)benzamide]",50 to 100%,A (80-100),50 to 100%
"O=C(Nc1ccc(F)cc1F)c1cc(NC(=O)[C@H]2[C@H](c3ccc(Br)c(Cl)c3)C2(Cl)Cl)ccc1Cl (relative stereo) [F306, 5-(trans-3-(4-Bromo-3-chlorophenyl)-2,2-dichlorocyclopropane-1-carboxamido)-2-chloro-N-(2,4-difluorophenyl)benzamide]",50 to 100%,A (80-100),50 to 100%
"CN(C(=O)c1cc(NC(=O)[C@H]2[C@H](c3ccc(Br)c(Cl)c3)C2(Cl)Cl)ccc1Cl)c1ccc(F)cc1 (relative stereo) [F307, 5-(trans-3-(4-Bromo-3-chlorophenyl)-2,2-dichlorocyclopropane-1-carboxamido)-2-chloro-N-(4-fluorophenyl)-N-methylbenzamide]",50 to 100%,A (80-100),50 to 100%
"N#Cc1cc(F)ccc1NC(=O)c1cc(NC(=O)[C@H]2[C@H](c3cc(C(F)(F)F)cc(C(F)(F)F)c3)C2(Cl)Cl)ccc1Cl (relative stereo) [F308, trans-5-(3-(3,5-bis(Trifluoromethyl)phenyl)-2,2-dichlorocyclopropane-1-carboxamido)-2-chloro-N-(2-cyano-4-fluorophenyl)benzamide]",50 to 100%,A (80-100),50 to 100%
"O=C(Nc1ncc(I)cc1F)c1cc(NC(=O)[C@H]2[C@H](c3cc(Cl)cc(Cl)c3)C2(Cl)Cl)ccc1Cl (relative stereo) [F312, 2-Chloro-5-(trans)-(2,2-dichloro-3-(3,5-dichlorophenyl)cyclopropane-1-carboxamido)-N-(3-fluoro-5-iodopyridin-2-yl)benzamide]",50 to 100%,A (80-100),50 to 100%
"C=Cc1ccc([C@H]2[C@H](C(=O)Nc3ccc(Cl)c(C(=O)Nc4ccc(F)cc4F)c3)C2(Cl)Cl)cc1Cl (relative stereo) [F319, 2-Chloro-5-(trans-2,2-dichloro-3-(3-chloro-4-vinylphenyl)cyclopropane-1-carboxamido)-N-(2,4-difluorophenyl)benzamide]",50 to 100%,A (80-100),50 to 100%
"N#Cc1cc(F)ccc1NC(=O)c1cc(NC(=O)[C@H]2[C@H](c3ccc(Br)c(Cl)c3)C2(Cl)Cl)ccc1Cl (relative stereo) [F320, 5-(trans-3-(4-Bromo-3-chlorophenyl)-2,2-dichlorocyclopropane-1-carboxamido)-2-chloro-N-(2-cyano-4-fluorophenyl)benzamide]",50 to 100%,A (80-100),50 to 100%
"Cc1cc(NC(=O)OC(C)(C)C)ccc1NC(=O)c1cc(NC(=O)[C@H]2[C@H](c3ccc(Br)c(Cl)c3)C2(Cl)Cl)ccc1Cl (relative stereo) [F322, tert-Butyl (4-(5-(trans-3-(4-bromo-3-chlorophenyl)-2,2-dichlorocyclopropane-1-carboxamido)-2-chlorobenzamido)-3-methylphenyl)carbamate]",50 to 100%,A (80-100),50 to 100%
"CNc1ccc(NC(=O)c2cc(NC(=O)[C@H]3[C@H](c4ccc(Br)c(Cl)c4)C3(Cl)Cl)ccc2Cl)c(C)c1 (relative stereo) [F323, 5-(trans-3-(4-bromo-3-chlorophenyl)-2,2-dichlorocyclopropane-1-carboxamido)-2-chloro-N-(2-methyl-4-(methylamino)phenyl)benzamide]",50 to 100%,A (80-100),50 to 100%
